Here are results for three compounds from article PMC6259751, “Investigating Spectrum of Biological Activity of 4- and 5-Chloro-2-hydroxy-N-[2-(arylamino)-1-alkyl-2-oxoethyl]benzamides” (Molecules, 2011).

By MIC is commonly meant the lowest concentration that inhibits growth of the organism. As usually defined, the IC50 is the concentration that gives 50% inhibition. A low value points to inhibition by little substance.

Series [1] in a line: Lipophilicity determination by RP-HPLC (capacity factor k / log k). The series is classed as physicochemical. The following applies: C18 column, MeOH 70% / H2O 30%, isocratic. The procedure, abridged: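 Isocratic RP-HPLC on end-capped C18 column, MeOH/H2O 70:30, 1.0 mL/min, 30 °C, UV 210 nm. Dead time from unretained KI; k = (tR − tD)/tD, log k taken as lipophilicity index on log P scale. Calculated log P/Clog P from two programs also reported.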

In series [2] the test system is Mycobacterium tuberculosis MTB CNCTC My 331/88. Briefly: In vitro antimycobacterial evaluation. Conditions: IC90 value. It is filed as cell-based.
Series [3] deals with Mycobacterium avium MA CNCTC My 330/88. Briefly: In vitro antimycobacterial evaluation. The series is classed as cell-based. Conditions: IC90 value.
Series [4] deals with Mycobacterium kansasii MK CNCTC My 235/80. As to the kind of experiment: In vitro antimycobacterial evaluation. It is filed as cell-based. The following applies: IC90 value.
In series [5] the test system is Candida tropicalis 156. Briefly: In vitro antifungal susceptibility testing (broth microdilution). The following applies: M27-A2 for yeasts, IC80 value. The series is classed as cell-based. (In general: Dilution methods test growth across graded concentrations, often in twofold steps.)
The test system of series [6] is Trichophyton mentagrophytes 445. Described as above. The series is classed as cell-based. Conditions: M38-A for moulds, IC50 value, read-out: MIC TM.
Series [7] concerns photosynthetic electron transport (PET) in spinach chloroplasts. Briefly: Inhibition of photosynthetic electron transport (PET) in spinach chloroplasts. It is filed as biochemical, Spinacia oleracea L. The following applies: DCPIP photoreduction. How it is done:
Chloroplasts were prepared from spinach (Spinacia oleracea L.) according to Masarovicova and Kralova. The inhibition of photosynthetic electron transport (PET) in spinach chloroplasts was determined spectrophotometrically (Genesys 6, Thermo Scientific, USA), using an artificial electron acceptor 2,6-dichlorophenol-indophenol (DCIPP) according to Kralova et al., and the rate of photosynthetic electron transport was monitored as a photoreduction of DCPIP. The measurements were carried out in phosphate buffer (0.02 mol/L, pH 7.2) containing sucrose (0.4 mol/L), MgCl2 (0.005 mol/L) and NaCl (0.015 mol/L). The chlorophyll content was 30 mg/L in these experiments and the samples were irradiated (~100 W/m^2) from 10 cm distance with a halogen lamp (250 W) using a 4 cm water filter to prevent warming of the samples. The studied compounds were dissolved in DMSO due to their limited water solubility. […] The inhibitory efficiency of the studied compounds was expressed by IC50 values, i.e. by molar concentration of the compounds causing 50% decrease in the oxygen evolution rate relative to the untreated control.

The format of series [8] is physicochemical. The following applies: for precipitation in the testing medium: antimycobacterial testing medium. How it is done:
The discussed amides were tested against three Mycobacteria strains. […] Activities of some benzamides, especially against M. avium and M. kansasii, considerably exceeded the activity of isoniazid (INH) used as an internal standard. The discussed compounds can be divided according to the activities against individual Mycobacteria strains, and structure-activity relationships within Group 1, Group 2 and Group 4 can be discussed.

For series [9], the system named is Staphylococcus aureus CCM 4516/08. As to the kind of experiment: In vitro antibacterial susceptibility testing (broth microdilution). Conditions: read-out: MIC SA.
The subject of series [10] is methicilin resistant Staphylococcus aureus H 5996/08. The description is as above. Conditions: MRSA, read-out: MIC MRSA.
Series [11] has as its system Staphylococcus epidermidis H 6966/08. Described as above. The following applies: read-out: MIC SE.
Series [12] concerns Enterococcus sp. J 14365/08. Described as above. The following applies: read-out: MIC EF.

The structures appear in SMILES notation. Converted amounts (≈) assume the structure as drawn. “And” between values parts separate entries of the source, which are not always exact repeats. Equal entries are not always repeated. Where two headings read alike, the source gives them in different places. Some results are limits rather than exact numbers.

In series [1], `O=C(N[C@@H](Cc1ccccc1)C(=O)Nc1ccc(Cl)c(Cl)c1)c1cc(Cl)ccc1O` [8q] displayed a log k of 0.9485. In addition, the minimal inhibitory concentration (MIC) in [2] (14h) is 125 µM (≈ 58 µg/mL); in series [2] (21h) it was over 1000 µM; in series [3] (14h) it was 125 µM (≈ 58 µg/mL); in [3] (21h), over 1000 µM; in series [4] (14h), 250 µM (≈ 116 µg/mL); in series [4] (21h), over 1000 µM. Also, the minimal inhibitory concentration (MIC) in [5] (24h) is over 125 µM; in [5] (48h), over 125 µM; in [6] (72h) it was over 125 µM; in series [6] (120h), over 125 µM; in series [9] (CCM4516, 24 h) it was over 500 µM; in series [9] (CCM4516, 48 h), over 500 µM. The minimum inhibitory concentration (MIC) is over 500 µM in series [10] (24 h); over 500 µM in series [10] (48 h); over 500 µM in series [11] (H6966/08, 24 h); over 500 µM in [11] (H6966/08, 48 h); over 500 µM in series [12] (SP.J14365/08, 24 h); over 500 µM in series [12] (SP.J14365/08, 48 h). In series [7], the IC50 was 74.2 µM. Also, the “solubility in comparison with the initial esters” value (“solubility in comparison” for short) in [8] was “lower solubility”. Moreover, the “precipitation in the testing medium” value in series [8] is “precipitated from testing medium”.

Take `O=C(N[C@H](Cc1ccccc1)C(=O)Nc1ccc(Cl)c(Cl)c1)c1cc(Cl)ccc1O` [8r]: the log k in series [1] was determined as 0.9408. Besides, the minimum inhibitory concentration (MIC) is 125 µM (≈ 58 µg/mL) in series [2] (14h); over 1000 µM in series [2] (21h); 125 µM (≈ 58 µg/mL) in series [3] (14h); over 1000 µM in series [3] (21h); 250 µM (≈ 116 µg/mL) in [4] (14h); over 1000 µM in series [4] (21h). The MIC was over 125 µM in series [5] (24h); over 125 µM in [5] (48h); over 125 µM in [6] (72h); over 125 µM in series [6] (120h); over 500 µM in series [9] (CCM4516, 24 h); over 500 µM in series [9] (CCM4516, 48 h). Further, the MIC in series [10] (24 h) is over 500 µM; in series [10] (48 h) it was over 500 µM; in series [11] (H6966/08, 24 h), over 500 µM; in series [11] (H6966/08, 48 h), over 500 µM; in series [12] (SP.J14365/08, 24 h), over 500 µM; in series [12] (SP.J14365/08, 48 h) it was over 500 µM. Further, the “solubility in comparison” value in series [8] was “lower solubility”. Besides, in series [8], the “precipitation in the testing medium” value is listed as “precipitated from testing medium”.

`C[C@H](NC(=O)c1cc(Cl)ccc1O)C(=O)Nc1cccc(Cl)c1` [8b]: the log k in series [1] is 0.41 and 0.4166. The minimal inhibitory concentration (MIC) is 250 µM (≈ 88.3 µg/mL) in series [2] (14h); over 500 µM in [2] (21h); 500 µM (≈ 177 µg/mL) in series [3] (14h); over 500 µM in series [3] (21h); 500 µM (≈ 177 µg/mL) in series [4] (14h); over 500 µM in series [4] (21h). The MIC in series [5] (24h) was over 125 µM; in series [5] (48h), over 125 µM; in series [6] (72h), 125 µM (≈ 44.2 µg/mL); in series [6] (120h), 125 µM (≈ 44.2 µg/mL); in series [9] (CCM4516, 24 h) it was over 250 µM; in series [9] (CCM4516, 48 h), over 250 µM. The MIC in series [10] (24 h) is over 250 µM; in series [10] (48 h), over 250 µM; in series [11] (H6966/08, 24 h) it was over 250 µM; in [11] (H6966/08, 48 h), over 250 µM; in series [12] (SP.J14365/08, 24 h) it was over 250 µM; in [12] (SP.J14365/08, 48 h), over 250 µM. Besides, in series [7], the IC50 was found to be 41.7 µM. In addition, in [8], the “solubility in comparison” value is recorded as “lower solubility”. Besides, the “precipitation in the testing medium” value in series [8] is “precipitation in the testing medium”.
